Data: patent US6605626B2, “Antithrombotic agents” (Eli Lilly and Company, priority 1997, dated 2003)

melting point | SMILES
208 to 210 °C | COc1ccc(NC(=O)c2ccccc2NC(=O)c2ccc(C(C)(C)C)cc2)cc1 [Example 89, 2-(4-tert-Butylbenzoylamino)-N-(4-methoxyphenyl)benzamide]
208 to 209 °C | COc1ccc(C(=O)Nc2cccc(O)c2NC(=O)c2ccc(OC)cc2)cc1 [Example 158, 2,3-bis[(4-Methoxybenzoyl)amino]phenol]
205 to 207.5 °C | CCNc1ccc(C(=O)Nc2ccc(OC)cc2)c(NC(=O)c2ccc(C(C)(C)C)cc2)c1 [Example 60a, 2-(4-tert-Butylbenzoylamino)-4-ethylamino-N-(4-methoxyphenyl)benzamide]
238 to 239 °C | COc1ccc(C(=O)Nc2ccc(OC)cc2NC(=O)c2ccc(OC)cc2)cc1 [Example 155, 4-Methoxy-N^1,N^2-bis(4-methoxybenzoyl)-1,2-benzenediamine]
